Results reported in the CheMixHub viscosity set.
Several values for one entry are separate records, joined by “and”; a condition that tells them apart may be missing. Equal values may be shown once. ± gives the uncertainty stated by the source.

Columns and labels:
[1] = xn = mol fraction of the nth substance listed; details: 101.33 kPa

O=C1CCCC1
viscosity
Details	298.15 K	303.15 K	308.15 K	313.15 K	318.15 K
100 kPa	–	0.985 ± 0.1 mPa·s	0.931 ± 0.1 mPa·s	0.863 ± 0.1 mPa·s	0.811 ± 0.1 mPa·s
101 kPa	1.084 ± 0.014 mPa·s and 1.125 ± 0.0079 mPa·s	–	0.923 ± 0.012 mPa·s and 0.931 ± 0.046 mPa·s and 0.928 ± 0.035 mPa·s	0.861 ± 0.012 mPa·s and 0.861 ± 0.011 mPa·s and 0.863 ± 0.044 mPa·s	0.811 ± 0.041 mPa·s
101.3 kPa	1.074 ± 0.027 mPa·s	–	–	–	–
101.33 kPa	–	0.992 ± 0.027 mPa·s	–	–	–

CC(=O)[O-].C[NH+]1CCCC1
Details	viscosity [mPa·s]
298.15 K, 100 kPa	3.78 ± 0.08

ClC=C(Cl)Cl
Details	viscosity
293.15 K, 101 kPa	0.568 ± 0.011 mPa·s
293.15 K, 101.33 kPa	0.572 ± 0.011 mPa·s
298 K, 101 kPa	0.69 ± 0.02 mPa·s
298.15 K, 101 kPa	0.531 ± 0.005 mPa·s
298.15 K, 101.33 kPa	0.529 ± 0.006 mPa·s and 0.618 ± 0.008 mPa·s
303 K, 101 kPa	0.66 ± 0.01 mPa·s
303.15 K, 101 kPa	0.52 ± 0.011 mPa·s and 0.523 ± 0.0045 mPa·s
303.15 K, 101.3 kPa	0.509 ± 0.009 mPa·s and 0.515 ± 0.008 mPa·s
303.15 K, 101.32 kPa	0.523 ± 0.0072 mPa·s
303.15 K, 101.33 kPa	0.523 ± 0.004 mPa·s and 0.515 ± 0.015 mPa·s and 0.532 ± 0.01 mPa·s
308 K, 101 kPa	0.63 ± 0.01 mPa·s
308.15 K, 101 kPa	0.489 ± 0.005 mPa·s
308.15 K, 101.33 kPa	0.588 ± 0.008 mPa·s
313 K, 101 kPa	0.6 ± 0.01 mPa·s
313.15 K, 101 kPa	0.482 ± 0.01 mPa·s and 0.531 ± 0.0071 mPa·s
313.15 K, 101.33 kPa	0.486 ± 0.014 mPa·s and 0.473 ± 0.0092 mPa·s
318.15 K, 101 kPa	0.45 ± 0.005 mPa·s
318.15 K, 101.33 kPa	0.557 ± 0.007 mPa·s
323.15 K, 101 kPa	0.445 ± 0.009 mPa·s and 0.472 ± 0.0063 mPa·s

CC(CCO)CC(C)(C)C (centres undefined)
101.33 kPa
Details	viscosity [mPa·s]
298.15 K	10.97 ± 0.4
303.15 K	10.44 ± 0.39
308.15 K	9.608 ± 0.36

C1COCCN1
101 kPa
Details	viscosity
293.15 K	2.12 ± 0.02 mPa·s and 2.282 ± 0.03 mPa·s
303.15 K	1.74 ± 0.02 mPa·s
313.15 K	1.45 ± 0.02 mPa·s
323.15 K	1.21 ± 0.01 mPa·s

CCCCn1cc[n+](C)c1.COP(=O)([O-])OC
101 kPa
Details	viscosity [mPa·s]
293.15 K	895.4 ± 36
298.15 K	608.9 ± 21
303.15 K	426 ± 13
308.15 K	305.8 ± 8.1
313.15 K	224.9 ± 5.1
318.15 K	168.9 ± 3.3
323.15 K	129.4 ± 2.2

CC(C)Br
101 kPa
Details	viscosity [mPa·s]
298.15 K	0.4981 ± 0.028
303.15 K	0.4835 ± 0.028
308.15 K	0.4708 ± 0.027
313.15 K	0.4389 ± 0.026
318.15 K	0.4194 ± 0.025

CCCCCCCC[P+](CC)(CC)CC.N#Cc1ccc[n-]1
100 kPa
Details	viscosity [mPa·s]
293.15 K	272 ± 39
298.15 K	189 ± 27
303.15 K	140 ± 20
313.15 K	82 ± 12

CCC[N+]1(C)CCCC1.N#C[N-]C#N
Details	viscosity [mPa·s]
313.15 K, 101 kPa	18.6 ± 1.9

Cc1ccccn1
viscosity
Details	293.15 K	298.15 K	298.18 K	303.15 K	303.21 K	308.23 K	313.15 K	313.29 K	318.33 K	323.15 K
101 kPa	0.808 ± 0.014 mPa·s	0.792 ± 0.013 mPa·s	0.751 ± 0.012 mPa·s	–	0.704 ± 0.011 mPa·s	0.663 ± 0.01 mPa·s	0.628 ± 0.011 mPa·s	0.623 ± 0.01 mPa·s	0.588 ± 0.009 mPa·s	–
101.3 kPa	–	–	–	0.7406 ± 0.017 mPa·s	–	–	0.6537 ± 0.015 mPa·s and 0.6534 ± 0.015 mPa·s	–	–	0.5843 ± 0.014 mPa·s

NC1CCCCC1
101 kPa
Details	viscosity
298.15 K	1.753 ± 0.013 mPa·s (2×) and 1.773 ± 0.021 mPa·s and 1.753 ± 0.012 mPa·s
303.15 K	1.656 ± 0.014 mPa·s and 1.648 ± 0.019 mPa·s
308.15 K	1.325 ± 0.14 mPa·s and 1.325 ± 0.017 mPa·s

O=C[O-].OCC[NH2+]CCO
100 kPa
Details	viscosity [mPa·s]
293.15 K	470.9 ± 96
303.15 K	242 ± 49
313.15 K	135 ± 27
323.15 K	82.25 ± 17

CC(O)CO (centres undefined)
viscosity
Details	293.15 K	298.15 K	303.15 K	308.15 K	313 K	313.15 K	318.15 K	323.15 K
100 kPa	54.6 ± 11 mPa·s and 58.75 ± 5.9 mPa·s and 59.2 ± 0.7 mPa·s	–	33.06 ± 0.69 mPa·s	25.31 ± 0.53 mPa·s and 24.9 ± 0.3 mPa·s	–	19.65 ± 2 mPa·s and 19.3 ± 0.2 mPa·s	–	12.53 ± 0.26 mPa·s and 12.54 ± 1.3 mPa·s and 12.51 ± 0.28 mPa·s
101 kPa	–	–	34.28 ± 0.094 mPa·s and 33.1 ± 0.7 mPa·s	–	20.2 ± 0.6 mPa·s	20.43 ± 0.055 mPa·s and 19.65 ± 0.09 mPa·s and 21.46 ± 0.12 mPa·s	–	12.2 ± 0.73 mPa·s
101.3 kPa	57.2 ± 0.2 mPa·s	43.5 ± 0.5 mPa·s and 43.6 ± 0.2 mPa·s	32.73 ± 0.42 mPa·s	25.1 ± 0.3 mPa·s and 24.8 ± 0.1 mPa·s	–	19.47 ± 0.23 mPa·s and 19.47 ± 0.14 mPa·s	15.36 ± 0.17 mPa·s and 15.2 ± 0.1 mPa·s and 15.36 ± 0.11 mPa·s	12.34 ± 0.14 mPa·s

ClC=C(Cl)Cl + CCCCOCCO
viscosity [mPa·s], [1]
Details	x1 = 0.1147	x1 = 0.2158	x1 = 0.3119	x1 = 0.4264	x1 = 0.5157	x1 = 0.6108	x1 = 0.687	x1 = 0.8076	x1 = 0.9043
303.15 K	2.11 ± 0.053	1.821 ± 0.047	1.568 ± 0.04	1.297 ± 0.034	1.111 ± 0.029	0.937 ± 0.025	0.817 ± 0.022	0.671 ± 0.019	0.582 ± 0.017
313.15 K	1.646 ± 0.043	1.451 ± 0.038	1.271 ± 0.034	1.074 ± 0.029	0.934 ± 0.025	0.806 ± 0.022	0.718 ± 0.02	0.608 ± 0.017	0.537 ± 0.016

CC(O)CO (centres undefined) + CN1CCCC1=O
[1]
Details	viscosity [mPa·s]
298.15 K, x2 = 0.03556	37.57 ± 0.77
298.15 K, x2 = 0.09927	27.77 ± 0.58
298.15 K, x2 = 0.195	18.05 ± 0.4
298.15 K, x2 = 0.3013	11.78 ± 0.28
298.15 K, x2 = 0.4032	8.207 ± 0.21
298.15 K, x2 = 0.5025	5.965 ± 0.16
298.15 K, x2 = 0.5936	4.558 ± 0.11
298.15 K, x2 = 0.6967	3.452 ± 0.078
298.15 K, x2 = 0.7994	2.682 ± 0.058
298.15 K, x2 = 0.9144	2.042 ± 0.043
298.15 K, x2 = 0.942	1.918 ± 0.041
308.15 K, x2 = 0.05805	19.68 ± 0.41
308.15 K, x2 = 0.1023	16.23 ± 0.34
308.15 K, x2 = 0.1977	11.09 ± 0.24
308.15 K, x2 = 0.2949	8.059 ± 0.18
308.15 K, x2 = 0.407	5.667 ± 0.14
308.15 K, x2 = 0.5051	4.3 ± 0.11
308.15 K, x2 = 0.5903	3.441 ± 0.08
308.15 K, x2 = 0.7066	2.66 ± 0.059
308.15 K, x2 = 0.7992	2.172 ± 0.047
308.15 K, x2 = 0.8842	1.81 ± 0.039
308.15 K, x2 = 0.9388	1.623 ± 0.035
318.15 K, x2 = 0.05313	12.45 ± 0.26
318.15 K, x2 = 0.1009	10.51 ± 0.22
318.15 K, x2 = 0.1905	7.664 ± 0.17
318.15 K, x2 = 0.2992	5.559 ± 0.13
318.15 K, x2 = 0.4025	4.21 ± 0.099
318.15 K, x2 = 0.5017	3.319 ± 0.079
318.15 K, x2 = 0.5999	2.697 ± 0.061
318.15 K, x2 = 0.6946	2.204 ± 0.049
318.15 K, x2 = 0.7967	1.805 ± 0.039
318.15 K, x2 = 0.8916	1.507 ± 0.032
318.15 K, x2 = 0.9393	1.378 ± 0.029
